The supplement of paper PMC10307832

Legend:
Test in all cases: relative viability (nuclei count vs DMSO), 5 days (fraction); higher = more cells survive
[1] = compound: CCN(CCO)CCCC(C)Nc1ccnc2cc(Cl)ccc12 [Hydroxychloroquine] + CS(=O)(=O)CCNCc1ccc(-c2ccc3ncnc(Nc4ccc(OCc5cccc(F)c5)c(Cl)c4)c3c2)o1 [Lapatinib] (partner 2 µM)
How it was run: (§1)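 Dosing by pin tool came one day after lung cancer cell lines were seeded in 1536-well plates, using either one drug or a fixed anchor-drug dose plus five library-drug doses (not always all listed) in √10 steps. After 5 days, nuclei were counted on 4× images. Relative viability is treated-well nuclei count divided by vehicle-well nuclei count, and values are medians of duplicate plates.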

[2] = compound: CCN(CCO)CCCC(C)Nc1ccnc2cc(Cl)ccc12 [Hydroxychloroquine] + NC(=O)Nc1cc(-c2cccc(F)c2)sc1C(=O)N[C@H]1CCCNC1 [AZD7762] (partner 0.2 µM)
How it was run: as §1

[3] = compound: CCN(CCO)CCCC(C)Nc1ccnc2cc(Cl)ccc12 [Hydroxychloroquine] + Nc1ncn([C@H]2C[C@H](O)[C@@H](CO)O2)c(=O)n1 [Decitabine] (partner 2 µM)
How it was run: as §1

[4] = compound: CCN(CCO)CCCC(C)Nc1ccnc2cc(Cl)ccc12 [Hydroxychloroquine] + O=C(c1cc(Cc2n[nH]c(=O)c3ccccc23)ccc1F)N1CCN(C(=O)C2CC2)CC1 [Olaparib] (partner 8 µM)
How it was run: as §1

Cell Line | relative viability ([1]; first compound 0.5 µM) | relative viability ([1]; first compound 1.581 µM) | relative viability ([1]; first compound 5 µM) | relative viability ([1]; first compound 15.81 µM) | relative viability ([1]; first compound 50 µM) | relative viability ([2]; first compound 0.5 µM) | relative viability ([2]; first compound 1.581 µM) | relative viability ([2]; first compound 5 µM) | relative viability ([2]; first compound 15.81 µM) | relative viability ([2]; first compound 50 µM) | relative viability ([3]; first compound 0.5 µM) | relative viability ([3]; first compound 1.581 µM) | relative viability ([3]; first compound 5 µM) | relative viability ([3]; first compound 15.81 µM) | relative viability ([3]; first compound 50 µM) | relative viability ([4]; first compound 0.5 µM) | relative viability ([4]; first compound 1.581 µM) | relative viability ([4]; first compound 5 µM) | relative viability ([4]; first compound 15.81 µM) | relative viability ([4]; first compound 50 µM)
NCI-H1651 | 0.811 | 0.925 | 0.729 | 0.979 | 0.988 | 0.501 | 0.585 | 0.47 | 0.451 | 0.457 | 0.626 | 0.649 | 0.652 | 0.633 | 0.509 | 0.178 | 0.193 | 0.191 | 0.18 | 0.197
NCI-H1666 | 0.572 | 0.483 | 0.681 | 0.61 | 0.538 | 0.891 | 0.791 | 0.806 | 0.774 | 0.72 | 0.707 | 0.691 | 0.759 | 0.792 | 0.635 | 0.669 | 0.727 | 0.719 | 0.749 | 0.693
NCI-H1734 | 1.13 | 0.99 | 0.992 | 1.05 | 0.99 | 0.62 | 0.562 | 0.649 | 0.644 | 0.622 | 0.486 | 0.482 | 0.459 | 0.491 | 0.497 | 0.525 | 0.601 | 0.626 | 0.616 | 0.635
NCI-H1755 | 1.06 | 0.875 | 1.02 | 1 | 1.02 | 0.616 | 0.447 | 0.396 | 0.445 | 0.514 | 0.707 | 0.644 | 0.727 | 0.694 | 0.656 | 0.861 | 0.841 | 0.841 | 0.912 | 0.827
NCI-H1792 | 0.889 | 0.923 | 0.831 | 0.793 | 0.93 | 0.762 | 0.692 | 0.57 | 0.601 | 0.836 | 0.56 | 0.521 | 0.563 | 0.461 | 0.583 | 0.461 | 0.413 | 0.195 | 0.439 | 0.433
NCI-H1793 | 0.57 | 0.556 | 0.649 | 0.603 | 0.691 | 0.46 | 0.615 | 0.452 | 0.402 | 0.404 | 0.542 | 0.466 | 0.42 | 0.412 | 0.259 | 0.866 | 0.814 | 0.878 | 0.906 | 0.728
NCI-H1915 | 0.958 | 0.91 | 1 | 1.07 | 1.02 | 0.65 | 0.742 | 0.731 | 0.711 | 0.707 | 0.252 | 0.247 | 0.273 | 0.252 | 0.263 | 0.244 | 0.243 | 0.262 | 0.275 | 0.265
NCI-H1944 | 0.762 | 0.755 | 0.797 | 0.867 | 0.967 | 0.828 | 0.75 | 0.513 | 0.432 | 0.455 | 0.4 | 0.44 | 0.423 | 0.483 | 0.429 | 0.417 | 0.445 | 0.416 | 0.414 | 0.402
NCI-H1975 | 0.989 | 0.867 | 0.874 | 0.891 | 1.18 | 0.679 | 0.659 | 0.752 | 0.698 | 0.754 | 0.384 | 0.372 | 0.378 | 0.408 | 0.415 | 0.816 | 0.767 | 0.856 | 0.85 | 0.911
NCI-H1993 | 0.751 | 0.759 | 0.899 | 0.834 | 0.839 | 0.699 | 0.597 | 0.927 | 0.79 | 0.817 | 0.664 | 0.635 | 0.705 | 0.688 | 0.606 | 1.24 | 1.04 | 1.14 | 0.61 | 1.11
NCI-H2085 | 0.83 | 0.666 | 0.832 | 0.742 | 0.873 | 1.03 | 0.933 | 0.922 | 0.927 | 1.06 | 0.623 | 0.507 | 0.604 | 0.606 | 0.578 | 0.74 | 0.769 | 0.817 | 0.739 | 0.774
NCI-H2087 | 1.11 | 0.907 | 0.942 | 0.946 | 1.11 | 1.33 | 1.19 | 1.46 | 1.32 | 1.48 | 0.265 | 0.258 | 0.242 | 0.219 | 0.294 | 0.596 | 0.709 | 0.683 | 0.756 | 0.511
NCI-H2126 | 0.74 | 0.649 | 0.761 | 0.797 | 0.816 | 1.07 | 1.12 | 0.984 | 1.08 | 1.03 | 0.584 | 0.547 | 0.57 | 0.579 | 0.566 | 0.98 | 0.921 | 0.9 | 0.975 | 0.926
NCI-H2170 | 0.261 | 0.251 | 0.275 | 0.276 | 0.267 | 0.925 | 0.918 | 0.867 | 0.882 | 1.09 | 0.438 | 0.449 | 0.396 | 0.438 | 0.457 | 0.647 | 0.568 | 0.679 | 0.528 | 0.734
NCI-H2347 | 0.882 | 0.842 | 1.09 | 0.922 | 0.958 | 0.657 | 0.692 | 0.806 | 0.701 | 0.882 | 0.658 | 0.536 | 0.618 | 0.573 | 0.636 | 0.594 | 0.563 | 0.588 | 0.608 | 0.541
NCI-H2405 | 1.09 | 0.998 | 1.1 | 1.04 | 1.15 | 0.879 | 0.841 | 0.717 | 0.675 | 0.768 | 0.718 | 0.743 | 0.774 | 0.69 | 0.761 | 0.934 | 0.87 | 0.836 | 0.886 | 0.861
